Laboratory results: patent US20200138829A1, “METHODS OF CANCER TREATMENT” (Ferro Therapeutics, Inc., priority 2017, published 2020)

Tests used:
Capan-1 cells = assay: Combination proliferation assay with PKC activator, Capan-1; type: cell-based
Protocol: (§1) Cell viability assay was performed to assess the potency of the ferroptosis inducer compounds in various cancer cell lines with K-Ras mutations. Cells at a density of 1,000-10,000 cells/well were seeded in 96-well plates and incubated at 37° C. overnight. A series of 9 different concentrations of compound stocks (500×) were created by 3-fold serial dilution in DMSO. These compounds were further diluted in culture media and then added to cells so that the final DMSO concentration was equal to 0.25% or less. After 96 hours of incubation, 50 μL of CellTiter Glo reagent (Promega) was added to each well and luminescence was measured after 10 minutes using EnVision (PerkinElmer). K101A (a PKC activator) was used as the reference compound titrated from top concentration of 30 μM. All compounds were tested initially from 30 μM as the top concentration in duplicates (range of 4.6 nM-30 μM). […] Data was analyzed using XL-fit software (ID Business Solutions Ltd.). IC50, relative IC50, or % of top inhibition was calculated.
(§2) Therefore, whether PKC activators synergize or antagonize with ferroptosis inducers can be tested empirically.

KP-4 cells [1] = assay: Effect of ferroptosis or apoptosis inhibitor on RSL3- or Erastin-induced cell death, KP-4; settings: Homo sapiens, KP-4, read-out: reduction of cell viability compared to DMSO
Protocol: as §1
Ferroptosis inhibitors include: Ferrostatin-1 and Liproxstatin-1, inhibitors of ROS accumulation; Deferoxamine, an iron chelator; and PD146176, a 15-lipoxygenase inhibitor (see, e.g., Hofman et al., 2016, J Med Chem. March 10; 59(5):2041-53; Yang et al., 2016 Cell 26(3):165-176). The apoptosis inhibitor chosen was ZVAD (see, e.g. Wu et al., 2011, Cell Death and Differentiation 18:26-37). Ferroptosis inhibitors and ZVAD were first titrated as a single agent as shown in Example 1.

Panc1 cells [2] = assay: Combination proliferation assay with PKC activator, Panc1; type: cell-based; settings: inducer up to 1 μM
Protocol: as §1, §2

KP-4 cells [3] = assay: Combination proliferation assay with PKC activator, KP-4; type: cell-based
Protocol: as §1, §2

PSN-1 cells [4] = assay: Cell viability assay (CellTiter Glo), PSN-1; type: cell-based; settings: PSN-1 versus A549
Protocol: (§3) Cell viability assay was performed to assess the potency of the ferroptosis inducer compounds in various cancer cell lines with K-Ras mutations. […] A series of 9 different concentrations of compound stocks (500×) were created by 3-fold serial dilution in DMSO. […] After 96 hours of incubation, 50 μL of CellTiter Glo reagent (Promega) was added to each well and luminescence was measured after 10 minutes using EnVision (PerkinElmer). […] IC50, relative IC50, or % of top inhibition was calculated. Next, RSL3, ML210, Erastin, and Auranofin were tested on additional K-RAS mutant pancreatic cell lines (Panc1, Panc6.03, Panc2.13, PSN-1, and Capan-1) in Table 1.

[5] = test system: B cell lymphoma cell lines Mino and Namalwa; assay: Cell viability assay, B cell lymphoma cell lines compared with A549; type: cell-based; settings: Mino and Namalwa versus A549
Protocol: Cell viability assay was performed to assess the potency of the ferroptosis inducer compounds in various cancer cell lines with K-Ras mutations. […] A series of 9 different concentrations of compound stocks (500×) were created by 3-fold serial dilution in DMSO. […] After 96 hours of incubation, 50 μL of CellTiter Glo reagent (Promega) was added to each well and luminescence was measured after 10 minutes using EnVision (PerkinElmer). […] […] IC50, relative IC50, or % of top inhibition was calculated.

A549 cells [6] = assay: Effect of ferroptosis or apoptosis inhibitor on RSL3- or Erastin-induced cell death, A549; settings: Homo sapiens, A549, read-out: reduction of cell viability compared to DMSO
Protocol: as §1
Ferroptosis inhibitors include: Ferrostatin-1 and Liproxstatin-1, inhibitors of ROS accumulation; Deferoxamine, an iron chelator; and PD146176, a 15-lipoxygenase inhibitor (see, e.g., Hofman et al., 2016, J Med Chem. March 10; 59(5):2041-53; Yang et al., 2016 Cell 26(3):165-176). […]

A549 cells [7] = assay: Combination proliferation assay with PKC activator, A549; type: cell-based; settings: inducer at concentration with minimal or no effect alone
Protocol: as §1, §2

Panc2.13 cells = assay: Combination proliferation assay with PKC activator, Panc2.13; type: cell-based
Protocol: as §1, §2

PSN-1 cells [8] = assay: Combination proliferation assay with PKC activator, PSN-1; type: cell-based
Protocol: as §1, §2

Panc1 cells [9] = assay: Cell viability assay (CellTiter Glo), Panc1; type: cell-based; settings: Panc1 versus A549
Protocol: as §3

SMILES: CCOc1ccccc1-n1c(C(C)N2CCN(C(=O)COc3ccc(Cl)cc3)CC2)nc2ccccc2c1=O (stereo not drawn) [Erastin]
- synergy with K101A or K102 to block proliferation (Capan-1 cells): did not synergize
- cytotoxicity at 1 µM (KP-4 cells [1]): > 90%
- synergy with K101A or K102 to block proliferation (Panc1 cells [2]): No synergistic effects
- synergy when combined with K101A or K102 (KP-4 cells [3]): only additive effects
- selectivity/sensitivity for induced cell death in comparison to A549 (PSN-1 cells [4]): ~2 fold
- sensitivity to induced cell death in comparison to A549 [5]: not more sensitive
- cytotoxicity at 10 µM (A549 cells [6]): 50 to 60%
- synergy with K101A or K102 to block proliferation (A549 cells [7]): synergized strongly
- effect on the potency of K101A or K102 (Panc2.13 cells): only increased the potency
- synergy with K101A or K102 to block proliferation (Panc2.13 cells): synergized
- synergy with K101A (PKC activators) to block proliferation (PSN-1 cells [8]): synergized
- selectivity for induced cell death in comparison to A549 (Panc1 cells [9]): ~2 fold
